Experimental data reported in US4317824A, “Derivatives of quinoxaline-1,4-dioxides” (Abic, Ltd., priority 1976, dated 1982).
Values after ≈ are worked out from the molar mass of the structure shown.

Columns and labels:
B. Subtilis = assay: antimicrobial activity, minimal inhibitory concentration, B. Subtilis; assay type: cell-based; conditions: Bacillus subtilis
Description: (§1) The antimicrobial activity of some compounds according to the present invention was measured and the results are shown in the following Tables. The activity is indicated as the minimal inhibitory concentration in μg/ml.

Trichophyt. Rubrum = assay: antimicrobial activity, minimal inhibitory concentration, Trichophyt. Rubrum; assay type: cell-based
Description: as §1

Crypt. Neof. = assay: antimicrobial activity, minimal inhibitory concentration, Crypt. Neof.; assay type: cell-based
Description: as §1

Cand. Alb. = assay: antimicrobial activity, minimal inhibitory concentration, Cand. Alb.; assay type: cell-based
Description: as §1

Shig. Flex. = assay: antimicrobial activity, minimal inhibitory concentration, Shig. Flex.; assay type: cell-based
Description: as §1

Staph. Aur. = assay: antimicrobial activity, minimal inhibitory concentration, Staph. Aur.; assay type: cell-based
Description: as §1

E. Coli [1] = assay: antimicrobial activity, minimal inhibitory concentration, E. Coli; assay type: cell-based; conditions: Escherichia coli
Description: as §1

Salm. Typh. = assay: antimicrobial activity, minimal inhibitory concentration, Salm. Typh.; assay type: cell-based; conditions: read-out: minimal inhibitory concentration
Description: as §1

B. Cereus = assay: antimicrobial activity, minimal inhibitory concentration, B. Cereus; assay type: cell-based; conditions: Bacillus cereus
Description: as §1

Mycoplasma gallisept = assay: antimicrobial activity, minimal inhibitory concentration, Mycoplasma gallisept; assay type: cell-based
Description: as §1

Pseud. Aur. = assay: antimicrobial activity, minimal inhibitory concentration, Pseud. Aur.; assay type: cell-based
Description: as §1

Proteus = assay: antimicrobial activity, minimal inhibitory concentration, Proteus; assay type: cell-based
Description: as §1

E. Coli [2] = assay: Systemic E. Coli infection in mice; assay type: in vivo; conditions: systemic E. Coli infection, 2,5 mg × 2 per day
Description: (§2) Some compounds of general formula Id were tested also in vivo.

St. aur = assay: Systemic St. aur infection in mice; assay type: in vivo; conditions: systemic St. aur infection, 2,5 mg × 2 per day
Description: as §2

E. Coli [3] = assay: U. Tract infections in mice (E. Coli); assay type: in vivo; conditions: U. Tract infections (E. Coli), 2,5 mg × 10 days
Description: as §2

E. Coli [4] = assay: E. Coli infections chick; assay type: in vivo; conditions: 50 mg/kg
Description: as §2

Structure (SMILES) | MIC (B. Subtilis) | MIC (Trichophyt. Rubrum) | MIC (Crypt. Neof.) | MIC (Cand. Alb.) | MIC (Shig. Flex.) | MIC (Staph. Aur.) | MIC (E. Coli [1]) | MIC (Salm. Typh.) | MIC (B. Cereus) | MIC (Mycoplasma gallisept) | MIC (Pseud. Aur.) | MIC (Proteus) | Protection (E. Coli [2]) | Protection (St. aur) | Protection (E. Coli [3]) | Protection (E. Coli [4])
CC(=O)ON=C(Cl)c1c[n+]([O-])c2ccc(C)cc2[n+]1[O-] [Example 12, 2-[α-chloro-(0-acetyl)-7-methyl-quinoxaline]-1,4-dioxide] | 11 to 100 mg/L (≈ 37.2 to 338 µM) | 1 mg/L (≈ 3.38 µM) | 10 mg/L (≈ 33.8 µM) | 10 mg/L (≈ 33.8 µM) | 11 to 100 mg/L (≈ 37.2 to 338 µM) |  |  |  |  |  |  |  |  |  |  | 
O=C(CCl)ON=C(Cl)c1c[n+]([O-])c2ccccc2[n+]1[O-] [Example 13, 2-[α-chloro-(0-chloroacetylcarboxaldoxime)]-quinoxaline-1,4-dioxide] | 11 to 100 mg/L (≈ 34.8 to 316 µM) | 11 to 100 mg/L (≈ 34.8 to 316 µM) |  |  | 11 to 100 mg/L (≈ 34.8 to 316 µM) | 20 mg/L (≈ 63.3 µM) | 25 mg/L (≈ 79.1 µM) | 50 mg/L (≈ 158 µM) | 25 mg/L (≈ 79.1 µM) | 25 mg/L (≈ 79.1 µM) |  |  |  |  |  | 
CN1CCN(NC(=NO)c2c[n+]([O-])c3ccccc3[n+]2[O-])CC1 |  | 25 mg/L (≈ 78.5 µM) | 10 to 25 mg/L (≈ 31.4 to 78.5 µM) | 25 mg/L (≈ 78.5 µM) |  | 50 mg/L (≈ 157 µM) | 25 mg/L (≈ 78.5 µM) |  | 50 mg/L (≈ 157 µM) | 2 mg/L (≈ 6.28 µM) | 11 to 100 mg/L (≈ 34.6 to 314 µM) | 11 to 100 mg/L (≈ 34.6 to 314 µM) |  |  |  | 
COC(=NO)c1c[n+]([O-])c2ccccc2[n+]1[O-] [Example 17 (methoxy), 2-(α-methoxy)-carboxaldoxime-quinoxaline-1,4-dioxide] | 11 to 100 mg/L (≈ 46.8 to 425 µM) |  |  |  | 11 to 100 mg/L (≈ 46.8 to 425 µM) | 10 mg/L (≈ 42.5 µM) | 10 mg/L (≈ 42.5 µM) |  | 10 mg/L (≈ 42.5 µM) | 2 to 10 mg/L (≈ 8.5 to 42.5 µM) |  |  |  |  |  | 
CN1CCN(C(=NO)c2c[n+]([O-])c3ccccc3[n+]2[O-])CC1 [drawing 6] |  |  |  |  |  | 25 mg/L (≈ 82.4 µM) | 25 mg/L (≈ 82.4 µM) |  | 25 mg/L (≈ 82.4 µM) | 10 mg/L (≈ 33 µM) | 11 to 100 mg/L (≈ 36.3 to 330 µM) | 11 to 100 mg/L (≈ 36.3 to 330 µM) |  |  |  | 
CCNC(=NO)c1c[n+]([O-])c2ccccc2[n+]1[O-] [Example 18, 2-(N-ethylamino)-carboxamidoxime-quinoxaline-1,4-dioxide] |  |  |  |  |  | 10 mg/L (≈ 40.3 µM) | 25 mg/L (≈ 101 µM) | 25 mg/L (≈ 101 µM) | 25 mg/L (≈ 101 µM) | 10 to 25 mg/L (≈ 40.3 to 101 µM) |  | 11 to 100 mg/L (≈ 44.3 to 403 µM) | + (indicates protection >80%) | +/- (indicates protection 50-80%) |  | 
Cc1cc2c(cc1C)[n+]([O-])c(C(Cl)=NO)c[n+]2[O-] [Example 9, 2-(α-chloro)-carboxaldoxime-6.7-dimethyl-quinoxaline-1,4-dioxide] | > 100 mg/L | 11 to 100 mg/L (≈ 41.1 to 374 µM) |  |  | > 100 mg/L | 11 to 100 mg/L (≈ 41.1 to 374 µM) | > 100 mg/L | > 100 mg/L | 11 to 100 mg/L (≈ 41.1 to 374 µM) |  |  |  |  |  |  | 
CN(C)NC(=NO)c1c[n+]([O-])c2ccccc2[n+]1[O-] [Example 21e, 2-(α-N-dimethyl-hydrazino)-carboxaldoxime-quinoxaline-1,4-dioxide] |  |  |  |  |  | 10 to 25 mg/L (≈ 38 to 95 µM) | 2 to 10 mg/L (≈ 7.6 to 38 µM) | 100 mg/L (≈ 380 µM) | 10 mg/L (≈ 38 µM) | 25 mg/L (≈ 95 µM) |  |  |  |  |  | 
[O-][n+]1cc(C(Cl)=NO)[n+]([O-])c2ccccc21 [Example 6, 2(α-chloro)-carboxaldoxime-quinoxaline-1,4-dioxide] | 11 to 100 mg/L (≈ 45.9 to 417 µM) | 11 to 100 mg/L (≈ 45.9 to 417 µM) |  |  | 11 to 100 mg/L (≈ 45.9 to 417 µM) | 25 mg/L (≈ 104 µM) | 25 mg/L (≈ 104 µM) |  | 25 mg/L (≈ 104 µM) | 25 to 50 mg/L (≈ 104 to 209 µM) |  |  |  |  |  | 
O=C(ON=C(Cl)c1c[n+]([O-])c2ccccc2[n+]1[O-])c1ccc([N+](=O)[O-])cc1 [Example 14] |  | 11 to 100 mg/L (≈ 28.3 to 257 µM) |  |  | 11 to 100 mg/L (≈ 28.3 to 257 µM) |  |  | 11 to 100 mg/L (≈ 28.3 to 257 µM) |  | 50 mg/L (≈ 129 µM) |  |  |  |  |  | 
CN(C)C(=NO)c1c[n+]([O-])c2ccccc2[n+]1[O-] [Example 30, 2-(dimethylamino)-carboxaldoxime-quinoxaline-1,4-dioxide] |  |  |  |  |  | 10 mg/L (≈ 40.3 µM) | 10 mg/L (≈ 40.3 µM) |  | 50 mg/L (≈ 201 µM) |  |  |  | + (indicates protection >80%) | +/- (indicates protection 50-80%) | + (indicates protection >80%) | + (indicates protection >80%)
[O-][n+]1cc(C(Cl)=NO)[n+]([O-])c2cc(Cl)ccc21 [Example 8, 2-(α-chloro)-carboxaldoxime-7-chloro-quinoxaline-1,4-dioxide] | 11 to 100 mg/L (≈ 40.1 to 365 µM) | 11 to 100 mg/L (≈ 40.1 to 365 µM) |  |  | 11 to 100 mg/L (≈ 40.1 to 365 µM) | 25 mg/L (≈ 91.2 µM) | 25 mg/L (≈ 91.2 µM) |  | 10 mg/L (≈ 36.5 µM) | 10 to 25 mg/L (≈ 36.5 to 91.2 µM) |  |  |  |  |  | 
[O-][n+]1cc(C(=NO)NN2CCOCC2)[n+]([O-])c2ccccc21 [drawing 8] |  |  |  |  |  |  |  |  |  |  |  |  | + (indicates protection >80%) | + (indicates protection >80%) |  | - (indicates protection <50%)
